From patent publication US20090105327A1, “Dibenzocycloheptane compounds and pharmaceuticals containing these compounds” (Merckle GMBH, priority 2005, published 2009)

Tests used:
activated p38α = activated p38α (Homo sapiens, UniProt Q16539); experiment: Kinase assay (p38 MAP kinase assay), ATF2 phosphorylation ELISA; format: biochemical; settings: 100 μM ATP, 10 ng activated p38α, ATF2 substrate; read-out: Inhibition of p 38 MAP kinase assay IC50
Method: Kinase Assay (p38 MAP Kinase Assay)
Microtiter plates were coated with 50 μl of ATF2 solution (20 μg/ml) at 37° C. for one hour. After washing with water three times, 50 μl of kinase mixture (50 mM tris-HCl 10 mM MgCl2, 10 mM β-glycerol phosphate, 10 μg/ml BSA, 1 mM DTT, 100 μM ATP, 100 μM Na3VO4, 10 ng of activated p38α) with or without inhibitor were put into the wells and incubated at 37° C. for 1 hour. After washing three times, the plates were incubated with […] at 37° C. for one hour. After washing again three times, a goat anti-rabbit IgG labeled with alkaline phosphatase was added at 37° C. for one hour (in order to retain the antibody phosphorylated protein-substrate complex). After washing three times, the alkaline phosphatase substrate solution (3 mM 4-NPP, 50 mM NaHCO3, 50 mM MgCl2, 100 μl/well) was added at 37° C. for 1.5 hours. […] The IC50 values are calculated.

IL-1β = experiment: tissue or blood; settings: Homo sapiens, 4 h, read-out: Inhibition of IL-1β (whole blood) IC50
Method: (§1) The compounds or compositions of the invention can be administered to a mammal (human or animal) in a dose of about 0.5 mg to 100 mg per kg of body weight per day. They can be given in a single dose or in a plurality of doses. […] Pharm. Pharm. Med. Chem. 333, Suppl. 1, 1-40, 2000.
(§2) In Vitro Test Method with Human Whole Blood
(§3) Samples of human potassium EDTA whole blood (400 μl each) are mixed with the test substance and preincubated at 37° C. in a CO2 incubator (5% CO2; 95% moisture-saturated air) for 15 min. The samples are then stimulated with 1 μg/ml LPS (E. coli 026:B6) in a CO2 incubator (5% CO2; 95% moisture-saturated air) at 37° C. for 4 hours. The reaction is stopped by placing the samples on ice, adding DPBS buffer and subsequently centrifuging at 1000.g for 15 min. The amount of IL-1β and TNFα in the plasma supernatant is then measured by means of an ELISA.

TNF-α = experiment: tissue or blood; settings: Homo sapiens, 4 h, read-out: Inhibition of TNF-α (whole blood) IC50
Method: as §1, §2, §3

activated p38α, sequence (Q16539 whole entry): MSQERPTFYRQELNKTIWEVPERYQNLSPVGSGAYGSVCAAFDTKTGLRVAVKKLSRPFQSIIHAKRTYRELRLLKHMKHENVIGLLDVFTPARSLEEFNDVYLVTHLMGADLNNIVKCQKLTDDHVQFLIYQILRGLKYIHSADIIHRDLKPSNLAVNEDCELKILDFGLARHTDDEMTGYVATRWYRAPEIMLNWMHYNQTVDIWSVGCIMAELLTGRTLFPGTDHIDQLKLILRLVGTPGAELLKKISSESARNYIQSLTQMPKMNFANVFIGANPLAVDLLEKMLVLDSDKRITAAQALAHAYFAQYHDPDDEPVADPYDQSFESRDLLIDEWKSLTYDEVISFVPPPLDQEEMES

| Compound | IC50 (activated p38α) [nM] | IC50 (IL-1β) [nM] | IC50 (TNF-α) [nM] | melting point [°C] |
| --- | --- | --- | --- | --- |
| 3-(2-Amino-4-fluorophenylamino)-6,11-dihydrodibenzo[b,e]oxepin-11-one [Example 24] | 38 |  |  |  |
| Nc1ccccc1Nc1ccc2c(c1)SCc1ccccc1C2=O [Example 4, 3-(2-Aminoanilino)-6,11-dihydrodibenzo[b,e]thiepin-11-one] | 1100 |  |  |  |
| Nc1ccccc1Nc1ccc2c(c1)OCc1ccccc1C2=O [Example 5, 3-(2-Aminoanilino)-6,11-dihydrodibenzo[b,e]oxepin-11-one] | 300 |  |  |  |
| Nc1ccccc1Nc1ccc2c(c1)CCc1ccccc1C2=O [Example 25, 2-(2-Aminophenylamino)-10,11-dihydrodibenzo[a,d]cycloheptan-5-one] |  | 1800 | 2300 |  |
| COc1ccccc1Nc1ccc2c(c1)CCc1ccccc1C2=O [Example 28, 2-(2-Methoxyphenylamino)-10,11-dihydrodibenzo[a,d]cyclohepten-5-one] | 159 |  |  | 52.5 |
